21 compounds from patent publication US6319897A, “Peptides which inhibit complement activation” (priority 1999, dated 2001) can be followed below.

pIC50: −log10 of the molar value. Where a SMILES comes first, the peptide text is derived from it. Bridges are numbered along the chain shown (N, C = ends). The star is where a group is joined. Cam = NC(=O)C* Bounds are passed on as bounds.

One may read the pIC50 as the negative decadic logarithm of the IC50, by convention in mol/L.

alternative pathway of complement activation, sequence (P01024 23-1663): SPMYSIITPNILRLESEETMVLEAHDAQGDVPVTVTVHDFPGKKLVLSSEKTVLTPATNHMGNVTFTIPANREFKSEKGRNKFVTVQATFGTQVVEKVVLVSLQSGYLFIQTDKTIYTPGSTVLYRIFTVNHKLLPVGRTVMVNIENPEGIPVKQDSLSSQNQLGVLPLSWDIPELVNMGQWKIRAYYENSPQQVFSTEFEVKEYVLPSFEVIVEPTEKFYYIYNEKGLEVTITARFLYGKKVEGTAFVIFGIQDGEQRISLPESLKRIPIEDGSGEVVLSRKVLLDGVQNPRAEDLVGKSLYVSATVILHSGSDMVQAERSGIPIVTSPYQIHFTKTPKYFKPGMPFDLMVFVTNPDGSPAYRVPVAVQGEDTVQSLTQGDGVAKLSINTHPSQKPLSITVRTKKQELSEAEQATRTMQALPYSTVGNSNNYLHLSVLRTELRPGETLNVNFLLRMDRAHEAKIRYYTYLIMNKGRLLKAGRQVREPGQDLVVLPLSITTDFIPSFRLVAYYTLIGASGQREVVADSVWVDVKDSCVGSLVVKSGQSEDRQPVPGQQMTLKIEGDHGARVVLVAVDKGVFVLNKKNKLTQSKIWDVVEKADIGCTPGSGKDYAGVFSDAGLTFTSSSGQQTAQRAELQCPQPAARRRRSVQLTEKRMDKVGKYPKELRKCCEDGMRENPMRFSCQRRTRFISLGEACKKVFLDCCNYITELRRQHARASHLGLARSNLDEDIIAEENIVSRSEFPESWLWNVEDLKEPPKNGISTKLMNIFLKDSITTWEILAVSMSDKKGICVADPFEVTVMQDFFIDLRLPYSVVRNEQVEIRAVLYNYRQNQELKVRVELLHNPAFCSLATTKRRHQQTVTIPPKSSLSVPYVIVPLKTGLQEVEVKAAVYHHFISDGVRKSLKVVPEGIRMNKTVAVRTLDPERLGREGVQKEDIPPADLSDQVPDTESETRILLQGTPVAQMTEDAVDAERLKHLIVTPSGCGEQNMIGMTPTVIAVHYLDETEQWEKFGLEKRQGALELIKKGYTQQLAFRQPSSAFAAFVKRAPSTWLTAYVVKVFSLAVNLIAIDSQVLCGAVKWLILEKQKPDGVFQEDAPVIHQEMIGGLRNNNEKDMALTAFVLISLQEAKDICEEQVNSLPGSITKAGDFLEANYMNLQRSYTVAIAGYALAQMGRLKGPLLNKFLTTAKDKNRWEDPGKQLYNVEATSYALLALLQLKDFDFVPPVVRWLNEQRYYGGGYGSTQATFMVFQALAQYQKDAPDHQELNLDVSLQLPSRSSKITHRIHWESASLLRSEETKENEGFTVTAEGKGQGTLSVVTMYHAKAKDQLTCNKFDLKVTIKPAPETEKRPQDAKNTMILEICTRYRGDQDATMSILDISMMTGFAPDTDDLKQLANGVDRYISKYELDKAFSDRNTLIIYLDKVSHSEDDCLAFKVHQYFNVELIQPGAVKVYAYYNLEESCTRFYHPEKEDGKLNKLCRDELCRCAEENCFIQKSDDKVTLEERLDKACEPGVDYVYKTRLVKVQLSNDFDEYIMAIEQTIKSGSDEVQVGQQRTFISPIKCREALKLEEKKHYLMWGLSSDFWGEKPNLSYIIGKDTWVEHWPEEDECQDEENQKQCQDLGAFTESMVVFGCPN

In the first test the test system is complement. Kind of test: Complement-mediated hemolytic assay (pathway not stated). It counts as cell-based.
Conditions: not given
The protocol: Inhibition of classical and alternative pathway activity by the peptides was measured. To determine the effect of peptides on the classical pathway, various concentrations of peptide were mixed with 11 μl of normal human serum (NHS, diluted 1:10 in GVB^++) and 5 μl of sheep erythrocytes coated with antibodies (EA) (1×10^9 /ml) and GVB^++ was added to give a total volume of 250 μl. The reaction mixture was incubated at 37° C. for 1 hour and centrifuged. The percentage of lysis was determined by measuring the optical density of the supernatant at 414 nm. The effect of peptides on the alternative pathway was determined by measuring the lysis of rabbit erythrocytes (Er) in NHS. Various concentrations of peptide were mixed with 5 μl of NHS, 5 μl of MgEGTA and 10 μl of Er (1×10^9 /ml) and brought to a final volume of 100 μl in GVB. The reaction mixture was incubated at 37° C. for 20 minutes and stopped by adding 200 μl of GVBE. After centrifugation, hemolysis was determined at 414 nm. The percentage of lysis was normalized by considering 100% lysis to be equal to the lysis occurring in the absence of the peptide.
Take “ICVVQDWGHHRCTAGHYY [SEQ ID NO: 23, peptide of the invention containing tyrosine residues at its C-terminus]”: the “activity in hemolytic assay” value was “equal activity to Peptide IV”.

A further test deals with alternative pathway of complement activation (Homo sapiens, UniProt P01024). Kind of test: Hemolytic assay, alternative pathway: lysis of rabbit erythrocytes in normal human serum with MgEGTA. The class given is cell-based. As to conditions: read-out: ALTERNATIVE PATHWAY IC50. Here is the method:
Inhibition of the alternative pathway was measured by using rabbit erythrocytes in the presence of MgEGTA (FIG. 3A); inhibition of lysis of antibody-coated sheep erythrocytes was used as an indicator of inhibition of the classical pathway (FIG. 3B).
Inhibition of classical and alternative pathway activity by the peptides was measured. […] The reaction mixture was incubated at 37° C. for 1 hour and centrifuged. […] The effect of peptides on the alternative pathway was determined by measuring the lysis of rabbit erythrocytes (Er) in NHS. Various concentrations of peptide were mixed with 5 μl of NHS, 5 μl of MgEGTA and 10 μl of Er (1×10^9 /ml) and brought to a final volume of 100 μl in GVB. The reaction mixture was incubated at 37° C. for 20 minutes and stopped by adding 200 μl of GVBE. […] The percentage of lysis was normalized by considering 100% lysis to be equal to the lysis occurring in the absence of the peptide.
Take `C[C@@H](O)[C@H](NC(=O)[C@@H]1CSSC[C@H](N)C(=O)N[C@@H](Cc2c[nH]cn2)C(=O)N[C@@H](Cc2c[nH]cn2)C(=O)N[C@@H](CCCNC(=N)N)C(=O)N1)C(N)=O` [VII] (H-CHHRCT-NH2; disulfide 1-5): the pIC50 is less than 3.22. As for `C[C@@H](O)[C@H](NC(=O)[C@@H]1CSSC[C@H](N)C(=O)N[C@@H](CC(=O)O)C(=O)N[C@@H](Cc2c[nH]c3ccccc23)C(=O)NCC(=O)N[C@@H](Cc2c[nH]cn2)C(=O)N[C@@H](Cc2c[nH]cn2)C(=O)N[C@@H](CCCNC(=N)N)C(=O)N1)C(N)=O` [X] (H-CDWGHHRCT-NH2; disulfide 1-8), the negative-log IC50 (pIC50) was less than 3.22. Turning to `CC(C)[C@@H]1NC(=O)[C@H](C(C)C)NC(=O)[C@@H](N)CSSC[C@@H](C(N)=O)NC(=O)[C@H](Cc2c[nH]c3ccccc23)NC(=O)[C@H](CC(=O)O)NC(=O)[C@H](CCC(N)=O)NC1=O` [XIII] (H-CVVQDWC-NH2; disulfide 1-7), the pIC50 is less than 3.22. The same measure, in the same setting: the figure for `C[C@@H](O)[C@H](NC(=O)[C@@H]1CSSC[C@H](N)C(=O)NCC(=O)N[C@@H](Cc2c[nH]cn2)C(=O)N[C@@H](Cc2c[nH]cn2)C(=O)N[C@@H](CCCNC(=N)N)C(=O)N1)C(N)=O` [VIII] (H-CGHHRCT-NH2; disulfide 1-6) is less than 3.22; for `CC(C)[C@@H]1NC(=O)[C@@H](N)CSSC[C@@H](C(=O)N[C@H](C(N)=O)[C@@H](C)O)NC(=O)[C@H](CCCNC(=N)N)NC(=O)[C@H](Cc2c[nH]cn2)NC(=O)[C@H](Cc2c[nH]cn2)NC(=O)CNC(=O)[C@H](Cc2c[nH]c3ccccc23)NC(=O)[C@H](CC(=O)O)NC(=O)[C@H](CCC(N)=O)NC1=O` [XII] (H-CVQDWGHHRCT-NH2; disulfide 1-10) it is less than 3.22. For the compound `C[C@@H](O)[C@H](NC(=O)[C@@H]1CSSC[C@H](N)C(=O)N[C@@H](Cc2c[nH]c3ccccc23)C(=O)NCC(=O)N[C@@H](Cc2c[nH]cn2)C(=O)N[C@@H](Cc2c[nH]cn2)C(=O)N[C@@H](CCCNC(=N)N)C(=O)N1)C(N)=O` [IX] (H-CWGHHRCT-NH2; disulfide 1-7), the pIC50 was less than 3.22. On to `CC[C@H](C)[C@H](N)C(=O)N[C@@H](CSCC(N)=O)C(=O)N[C@H](C(=O)N[C@H](C(=O)N[C@@H](CCC(N)=O)C(=O)N[C@@H](CC(=O)O)C(=O)N[C@@H](Cc1c[nH]c2ccccc12)C(=O)NCC(=O)N[C@@H](Cc1c[nH]cn1)C(=O)N[C@@H](Cc1c[nH]cn1)C(=O)N[C@@H](CCCNC(=N)N)C(=O)N[C@@H](CSCC(N)=O)C(=O)N[C@H](C(=O)N[C@@H](C)C(=O)NCC(=O)N[C@@H](Cc1c[nH]cn1)C(=O)N[C@@H](CCSC)C(=O)N[C@@H](C)C(=O)N[C@@H](CC(N)=O)C(=O)N[C@@H](CC(C)C)C(=O)N[C@H](C(=O)N[C@@H](CO)C(=O)N[C@@H](Cc1c[nH]cn1)C(=O)N[C@@H](C)C(=O)N[C@@H](CO)C(=O)N[C@@H](C)C(=O)N[C@H](C(N)=O)[C@@H](C)CC)[C@@H](C)O)[C@@H](C)O)C(C)C)C(C)C` [II] (H-IC(Cam)VVQDWGHHRC(Cam)TAGHMANLTSHASAI-NH2), for which the pIC50 is less than 3.52. Take `CC[C@H](C)[C@H](N)C(=O)N[C@@H](CSCC(N)=O)C(=O)N[C@H](C(=O)N[C@H](C(=O)N[C@@H](CCC(N)=O)C(=O)N[C@@H](CC(=O)O)C(=O)N[C@@H](Cc1c[nH]c2ccccc12)C(=O)NCC(=O)N[C@@H](Cc1c[nH]cn1)C(=O)N[C@@H](Cc1c[nH]cn1)C(=O)N[C@@H](CCCNC(=N)N)C(=O)N[C@@H](CSCC(N)=O)C(=O)N[C@H](C(N)=O)[C@@H](C)O)C(C)C)C(C)C` [Peptide V]: the pIC50 was less than 3.52. For the compound `CC(C)[C@@H]1NC(=O)[C@H](C(C)C)NC(=O)[C@@H](N)CSSC[C@@H](C(N)=O)NC(=O)[C@H](Cc2c[nH]cn2)NC(=O)CNC(=O)[C@H](Cc2c[nH]c3ccccc23)NC(=O)[C@H](CC(=O)O)NC(=O)[C@H](CCC(N)=O)NC1=O` [XIV] (H-CVVQDWGHC-NH2; disulfide 1-9), the pIC50 is less than 3.22. Turning to `CC(C)[C@@H]1NC(=O)[C@H](C(C)C)NC(=O)[C@@H](N)CSSC[C@@H](C(N)=O)NC(=O)[C@H](C)NC(=O)[C@H](Cc2c[nH]cn2)NC(=O)[C@H](Cc2c[nH]cn2)NC(=O)CNC(=O)[C@H](Cc2c[nH]c3ccccc23)NC(=O)[C@H](CC(=O)O)NC(=O)[C@H](CCC(N)=O)NC1=O` [XXIII] (H-CVVQDWGHHAC-NH2; disulfide 1-11), the pIC50 was 4.15.

`C[C@@H](O)[C@H](NC(=O)[C@@H]1CSSC[C@H](N)C(=O)N[C@@H](CCC(N)=O)C(=O)N[C@@H](CC(=O)O)C(=O)N[C@@H](Cc2c[nH]c3ccccc23)C(=O)NCC(=O)N[C@@H](Cc2c[nH]cn2)C(=O)N[C@@H](Cc2c[nH]cn2)C(=O)N[C@@H](CCCNC(=N)N)C(=O)N1)C(N)=O` [XI] (H-CQDWGHHRCT-NH2; disulfide 1-9): the pIC50 was less than 3.22.

As to `CC(C)[C@@H]1NC(=O)[C@H](C(C)C)NC(=O)[C@@H](N)CSSC[C@@H](C(N)=O)NC(=O)[C@H](CCCNC(=N)N)NC(=O)[C@H](Cc2c[nH]cn2)NC(=O)[C@H](Cc2c[nH]cn2)NC(=O)CNC(=O)[C@H](C)NC(=O)[C@H](CC(=O)O)NC(=O)[C@H](CCC(N)=O)NC1=O` [XIX] (H-CVVQDAGHHRC-NH2; disulfide 1-11), the negative-log IC50 (pIC50) was 3.74.

The same test, now with this note: read-out: A[…] IC50.
Consider `CC(C)[C@@H]1NC(=O)[C@H](C(C)C)NC(=O)[C@@H](N)CSSC[C@@H](C(N)=O)NC(=O)[C@H](CCCNC(=N)N)NC(=O)[C@H](Cc2c[nH]cn2)NC(=O)[C@H](Cc2c[nH]cn2)NC(=O)CNC(=O)[C@H](Cc2c[nH]c3ccccc23)NC(=O)[C@H](CC(=O)O)NC(=O)[C@H](CCC(N)=O)NC1=O` [VI] (H-CVVQDWGHHRC-NH2; disulfide 1-11), for which the pIC50 is 4.48.

With `CC(C)[C@@H]1NC(=O)[C@H](C(C)C)NC(=O)[C@@H](N)CSSC[C@@H](C(N)=O)NC(=O)[C@H](CCCNC(=N)N)NC(=O)[C@H](C)NC(=O)[C@H](Cc2c[nH]cn2)NC(=O)CNC(=O)[C@H](Cc2c[nH]c3ccccc23)NC(=O)[C@H](CC(=O)O)NC(=O)[C@H](CCC(N)=O)NC1=O` [XXII] (H-CVVQDWGHARC-NH2; disulfide 1-11), the negative-log IC50 (pIC50) is 4.13. As for `CC(C)[C@@H]1NC(=O)[C@H](C)NC(=O)[C@@H](N)CSSC[C@@H](C(N)=O)NC(=O)[C@H](CCCNC(=N)N)NC(=O)[C@H](Cc2c[nH]cn2)NC(=O)[C@H](Cc2c[nH]cn2)NC(=O)CNC(=O)[C@H](Cc2c[nH]c3ccccc23)NC(=O)[C@H](CC(=O)O)NC(=O)[C@H](CCC(N)=O)NC1=O` [XV] (H-CAVQDWGHHRC-NH2; disulfide 1-11), the pIC50 is 2.92. The same measure, in the same setting: the value for `CC(C)[C@@H]1NC(=O)[C@H](C(C)C)NC(=O)[C@@H](N)CSSC[C@@H](C(N)=O)NC(=O)[C@H](CCCNC(=N)N)NC(=O)[C@H](Cc2c[nH]cn2)NC(=O)[C@H](Cc2c[nH]cn2)NC(=O)CNC(=O)[C@H](Cc2c[nH]c3ccccc23)NC(=O)[C@H](C)NC(=O)[C@H](CCC(N)=O)NC1=O` [XVIII] (H-CVVQAWGHHRC-NH2; disulfide 1-11) was 3.59; that for `CC(C)[C@@H]1NC(=O)[C@@H](N)CSSC[C@@H](C(N)=O)NC(=O)[C@H](CCCNC(=N)N)NC(=O)[C@H](Cc2c[nH]cn2)NC(=O)[C@H](Cc2c[nH]cn2)NC(=O)CNC(=O)[C@H](Cc2c[nH]c3ccccc23)NC(=O)[C@H](CC(=O)O)NC(=O)[C@H](CCC(N)=O)NC(=O)[C@H](C)NC1=O` [XVI] (H-CVAQDWGHHRC-NH2; disulfide 1-11) was 4.17; that for `CC(C)[C@@H]1NC(=O)[C@H](C(C)C)NC(=O)[C@@H](N)CSSC[C@@H](C(N)=O)NC(=O)[C@H](CCCNC(=N)N)NC(=O)[C@H](Cc2c[nH]cn2)NC(=O)[C@H](Cc2c[nH]cn2)NC(=O)[C@H](C)NC(=O)[C@H](Cc2c[nH]c3ccccc23)NC(=O)[C@H](CC(=O)O)NC(=O)[C@H](CCC(N)=O)NC1=O` [XX] (H-CVVQDWAHHRC-NH2; disulfide 1-11) was less than 2.92. Same read-out and setting: the value for `CC(C)[C@@H]1NC(=O)[C@H](C(C)C)NC(=O)[C@@H](N)CSSC[C@@H](C(N)=O)NC(=O)[C@H](CCCNC(=N)N)NC(=O)[C@H](Cc2c[nH]cn2)NC(=O)[C@H](Cc2c[nH]cn2)NC(=O)CNC(=O)[C@H](Cc2c[nH]c3ccccc23)NC(=O)[C@H](CC(=O)O)NC(=O)[C@H](C)NC1=O` [XVII] (H-CVVADWGHHRC-NH2; disulfide 1-11) was 3.04; that for `CC(C)[C@@H]1NC(=O)[C@H](C(C)C)NC(=O)[C@@H](N)CSSC[C@@H](C(N)=O)NC(=O)[C@H](CCCNC(=N)N)NC(=O)[C@H](Cc2c[nH]cn2)NC(=O)[C@H](C)NC(=O)CNC(=O)[C@H](Cc2c[nH]c3ccccc23)NC(=O)[C@H](CC(=O)O)NC(=O)[C@H](CCC(N)=O)NC1=O` [XXI] (H-CVVQDWGAHRC-NH2; disulfide 1-11) was 4.82.
